Earlier results as cited in PMC8352984, “Estrogen mediates sex differences in preoptic neuropeptide and pituitary hormone production in medaka” (Communications Biology, 2021).

Tested on: Sl-producing cells, via Adcyap1r1
Design: method as in PMID 18523122, PMID 19540424, PMID 23422837
Details: grass carp and goldfish; cited from earlier work

Substance: Pituitary adenylate cyclase-activating polypeptide [Pacap]
- synthesis and release of Sl (in words): stimulate the synthesis and release of Sl via Adcyap1r1
